# Source: the kinase profiling compilation of Christmann-Franck et al. (2016)
# Assays:
# Test in all cases: radiometric filter-binding kinase assay, Kinase HotSpot
# Details in all cases: compound 0.5 µM; ATP 10 µM
# CLK3 (human) = CLK3 (human) (UniProt P49761)
# ERBB2 (human) = ERBB2 (human) (UniProt P04626)
# TSSK1B (human) = TSSK1B (human) (UniProt Q9BXA7)
# PHKG2 (human) = PHKG2 (human) (UniProt P15735)
# FGR (human) = FGR (human) (UniProt P09769)
# CSNK1D (human) = CSNK1D (human) (UniProt P48730)
# CSNK1D (human), sequence (P48730 whole entry, looked up): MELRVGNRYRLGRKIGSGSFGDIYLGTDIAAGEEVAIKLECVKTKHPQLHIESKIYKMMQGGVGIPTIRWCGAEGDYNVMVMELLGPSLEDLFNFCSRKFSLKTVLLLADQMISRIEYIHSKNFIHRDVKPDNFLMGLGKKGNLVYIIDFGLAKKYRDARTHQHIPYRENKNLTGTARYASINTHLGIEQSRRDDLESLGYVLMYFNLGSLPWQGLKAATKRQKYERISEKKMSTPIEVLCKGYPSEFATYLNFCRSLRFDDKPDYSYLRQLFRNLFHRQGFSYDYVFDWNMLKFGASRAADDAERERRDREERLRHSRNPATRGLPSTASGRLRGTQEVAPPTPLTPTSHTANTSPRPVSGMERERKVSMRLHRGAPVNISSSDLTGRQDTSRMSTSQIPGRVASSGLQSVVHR
# TAOK1 (human) = TAOK1 (human) (UniProt Q7L7X3)
# RET (human) = RET (human) (UniProt P07949)
# TEC (human) = TEC (human) (UniProt P42680)
# RPS6KB1 (human) = RPS6KB1 (human) (UniProt P23443)
# CDK4 CCND3 (human) = CDK4 CCND3 (human) (UniProt P30281+P11802)
# CDK4 CCND3 (human), sequence (P11802 whole entry, looked up): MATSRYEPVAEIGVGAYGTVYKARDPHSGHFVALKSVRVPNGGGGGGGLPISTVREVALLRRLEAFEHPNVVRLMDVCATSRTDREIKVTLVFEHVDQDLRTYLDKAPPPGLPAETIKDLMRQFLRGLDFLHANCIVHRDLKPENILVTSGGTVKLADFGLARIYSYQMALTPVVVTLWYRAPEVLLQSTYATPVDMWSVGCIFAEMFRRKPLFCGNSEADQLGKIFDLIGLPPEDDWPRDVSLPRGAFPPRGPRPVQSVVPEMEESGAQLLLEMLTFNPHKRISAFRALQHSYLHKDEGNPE
# CDK4 CCND3 (human), sequence (P30281 whole entry, looked up): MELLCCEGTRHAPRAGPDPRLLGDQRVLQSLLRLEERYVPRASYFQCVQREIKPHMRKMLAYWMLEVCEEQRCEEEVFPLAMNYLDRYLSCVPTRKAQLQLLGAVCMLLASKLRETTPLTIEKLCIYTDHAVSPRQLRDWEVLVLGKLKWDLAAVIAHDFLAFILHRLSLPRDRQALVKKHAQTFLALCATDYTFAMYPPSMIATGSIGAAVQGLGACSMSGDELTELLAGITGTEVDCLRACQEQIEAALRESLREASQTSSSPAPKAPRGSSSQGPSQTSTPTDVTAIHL
# MERTK (human) = MERTK (human) (UniProt Q12866)
# NEK11 (human) = NEK11 (human) (UniProt Q8NG66)
# ACVR1B (human) = ACVR1B (human) (UniProt P36896)
# RAF1 (human) = RAF1 (human) (UniProt P04049)
# CDK6 CCND1 (human) = CDK6 CCND1 (human) (UniProt Q00534+P24385)
# WEE1 (human) = WEE1 (human) (UniProt P30291)
# PDPK1 (human) = PDPK1 (human) (UniProt O15530)
# PBK (human) = PBK (human) (UniProt Q96KB5)
# PBK (human), sequence (Q96KB5 whole entry, looked up): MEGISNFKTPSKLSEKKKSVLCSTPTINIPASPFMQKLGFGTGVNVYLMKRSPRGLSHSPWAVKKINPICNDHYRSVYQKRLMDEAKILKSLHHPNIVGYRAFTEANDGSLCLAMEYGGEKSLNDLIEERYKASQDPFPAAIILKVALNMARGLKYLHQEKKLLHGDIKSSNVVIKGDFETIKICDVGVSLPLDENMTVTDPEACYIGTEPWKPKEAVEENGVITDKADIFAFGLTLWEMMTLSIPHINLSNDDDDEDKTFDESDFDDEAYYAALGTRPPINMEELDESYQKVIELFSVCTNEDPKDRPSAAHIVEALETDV
# PKN2 (human) = PKN2 (human) (UniProt Q16513)
# RPS6KA5 KD2 (human) = RPS6KA5 KD2 (human) (UniProt O75582)
# RPS6KA5 KD2 (human), sequence (O75582 whole entry, looked up): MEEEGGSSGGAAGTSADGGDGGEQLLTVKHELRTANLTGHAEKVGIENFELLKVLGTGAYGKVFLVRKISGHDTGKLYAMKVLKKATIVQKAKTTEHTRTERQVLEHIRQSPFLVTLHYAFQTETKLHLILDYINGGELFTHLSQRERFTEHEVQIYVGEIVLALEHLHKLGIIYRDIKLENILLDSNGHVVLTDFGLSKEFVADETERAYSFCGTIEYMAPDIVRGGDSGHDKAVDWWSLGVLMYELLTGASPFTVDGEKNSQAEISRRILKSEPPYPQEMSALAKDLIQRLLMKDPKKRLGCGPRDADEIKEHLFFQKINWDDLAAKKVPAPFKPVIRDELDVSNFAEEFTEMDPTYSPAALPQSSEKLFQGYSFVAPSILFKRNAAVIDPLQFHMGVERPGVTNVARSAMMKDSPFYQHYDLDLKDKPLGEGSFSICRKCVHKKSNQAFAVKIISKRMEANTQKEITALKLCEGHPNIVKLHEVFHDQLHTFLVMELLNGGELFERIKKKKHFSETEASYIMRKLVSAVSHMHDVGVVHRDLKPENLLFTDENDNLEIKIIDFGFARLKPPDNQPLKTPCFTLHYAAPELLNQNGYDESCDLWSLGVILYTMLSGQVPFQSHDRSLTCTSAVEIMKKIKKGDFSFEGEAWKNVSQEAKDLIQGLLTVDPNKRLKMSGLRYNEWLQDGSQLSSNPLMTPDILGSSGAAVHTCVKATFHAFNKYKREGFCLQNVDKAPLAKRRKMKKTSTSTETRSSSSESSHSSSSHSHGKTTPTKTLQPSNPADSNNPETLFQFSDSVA
# MAP3K2 (human) = MAP3K2 (human) (UniProt Q9Y2U5)
# DDR2 (human) = DDR2 (human) (UniProt Q16832)
# TAOK2 (human) = TAOK2 (human) (UniProt Q9UL54)
# TNK2 (human) = TNK2 (human) (UniProt Q07912)
# TNK2 (human), sequence (Q07912 whole entry, looked up): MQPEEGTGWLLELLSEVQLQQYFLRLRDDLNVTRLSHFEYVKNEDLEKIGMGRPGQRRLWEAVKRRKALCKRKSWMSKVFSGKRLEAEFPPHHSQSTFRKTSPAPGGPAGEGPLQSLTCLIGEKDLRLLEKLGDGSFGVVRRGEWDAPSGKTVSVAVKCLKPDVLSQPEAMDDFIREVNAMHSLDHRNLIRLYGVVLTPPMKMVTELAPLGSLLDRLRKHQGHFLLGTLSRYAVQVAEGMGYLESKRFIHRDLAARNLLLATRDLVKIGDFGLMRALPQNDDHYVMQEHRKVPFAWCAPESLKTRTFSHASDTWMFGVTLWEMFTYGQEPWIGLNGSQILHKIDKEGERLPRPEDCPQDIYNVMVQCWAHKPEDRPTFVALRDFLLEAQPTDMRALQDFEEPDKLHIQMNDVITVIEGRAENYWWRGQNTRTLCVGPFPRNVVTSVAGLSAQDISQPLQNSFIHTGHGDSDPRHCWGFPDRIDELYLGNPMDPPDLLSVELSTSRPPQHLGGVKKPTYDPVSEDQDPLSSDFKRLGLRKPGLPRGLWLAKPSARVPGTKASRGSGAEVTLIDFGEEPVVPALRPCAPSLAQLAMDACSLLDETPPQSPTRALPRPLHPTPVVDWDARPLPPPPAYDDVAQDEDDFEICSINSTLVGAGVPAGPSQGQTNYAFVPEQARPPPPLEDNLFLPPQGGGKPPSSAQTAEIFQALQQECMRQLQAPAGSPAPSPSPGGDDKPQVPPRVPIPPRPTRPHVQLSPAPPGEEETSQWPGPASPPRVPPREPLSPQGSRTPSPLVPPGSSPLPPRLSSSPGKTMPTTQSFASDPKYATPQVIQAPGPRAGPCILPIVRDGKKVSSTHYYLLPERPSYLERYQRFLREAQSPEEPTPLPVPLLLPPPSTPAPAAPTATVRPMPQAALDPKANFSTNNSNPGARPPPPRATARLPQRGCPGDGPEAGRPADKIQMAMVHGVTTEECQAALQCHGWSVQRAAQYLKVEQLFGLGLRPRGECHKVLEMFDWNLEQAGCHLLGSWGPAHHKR
# KIT (human) = KIT (human) (UniProt P10721)
# PRKACG (human) = PRKACG (human) (UniProt P22612)
# CDK1 CCNA2 (human) = CDK1 CCNA2 (human) (UniProt P06493+P20248)
# CDK1 CCNA2 (human), sequence (P06493 whole entry, looked up): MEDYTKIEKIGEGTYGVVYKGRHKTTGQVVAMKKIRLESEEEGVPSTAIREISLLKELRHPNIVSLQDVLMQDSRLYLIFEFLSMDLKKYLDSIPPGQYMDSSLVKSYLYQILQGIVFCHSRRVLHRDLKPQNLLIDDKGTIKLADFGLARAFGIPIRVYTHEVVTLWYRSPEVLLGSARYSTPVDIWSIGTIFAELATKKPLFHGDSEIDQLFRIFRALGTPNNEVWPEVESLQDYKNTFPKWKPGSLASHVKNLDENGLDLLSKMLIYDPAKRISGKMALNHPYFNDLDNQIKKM
# CDK1 CCNA2 (human), sequence (P20248 whole entry, looked up): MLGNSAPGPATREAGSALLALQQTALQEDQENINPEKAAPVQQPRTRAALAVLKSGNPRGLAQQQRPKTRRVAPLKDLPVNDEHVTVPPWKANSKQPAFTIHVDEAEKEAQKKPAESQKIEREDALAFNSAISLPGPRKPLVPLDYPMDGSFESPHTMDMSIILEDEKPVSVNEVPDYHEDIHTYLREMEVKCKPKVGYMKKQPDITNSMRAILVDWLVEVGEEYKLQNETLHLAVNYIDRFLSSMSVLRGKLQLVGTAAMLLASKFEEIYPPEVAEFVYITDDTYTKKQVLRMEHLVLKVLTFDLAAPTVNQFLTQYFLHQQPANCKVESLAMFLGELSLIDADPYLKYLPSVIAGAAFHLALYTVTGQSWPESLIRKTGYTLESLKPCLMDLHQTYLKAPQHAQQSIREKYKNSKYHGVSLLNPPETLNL
# AURKC (human) = AURKC (human) (UniProt Q9UQB9)
# AURKC (human), sequence (Q9UQB9 whole entry, looked up): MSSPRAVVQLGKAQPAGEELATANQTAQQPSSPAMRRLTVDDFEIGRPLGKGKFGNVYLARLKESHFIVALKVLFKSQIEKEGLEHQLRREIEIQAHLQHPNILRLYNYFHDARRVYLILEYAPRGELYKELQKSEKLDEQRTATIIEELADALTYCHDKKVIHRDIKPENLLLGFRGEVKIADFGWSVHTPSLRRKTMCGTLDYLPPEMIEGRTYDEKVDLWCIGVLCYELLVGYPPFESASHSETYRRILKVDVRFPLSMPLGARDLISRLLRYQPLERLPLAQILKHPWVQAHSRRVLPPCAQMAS
# STK11 (human) = STK11 (human) (UniProt Q15831)
# STK11 (human), sequence (Q15831 whole entry, looked up): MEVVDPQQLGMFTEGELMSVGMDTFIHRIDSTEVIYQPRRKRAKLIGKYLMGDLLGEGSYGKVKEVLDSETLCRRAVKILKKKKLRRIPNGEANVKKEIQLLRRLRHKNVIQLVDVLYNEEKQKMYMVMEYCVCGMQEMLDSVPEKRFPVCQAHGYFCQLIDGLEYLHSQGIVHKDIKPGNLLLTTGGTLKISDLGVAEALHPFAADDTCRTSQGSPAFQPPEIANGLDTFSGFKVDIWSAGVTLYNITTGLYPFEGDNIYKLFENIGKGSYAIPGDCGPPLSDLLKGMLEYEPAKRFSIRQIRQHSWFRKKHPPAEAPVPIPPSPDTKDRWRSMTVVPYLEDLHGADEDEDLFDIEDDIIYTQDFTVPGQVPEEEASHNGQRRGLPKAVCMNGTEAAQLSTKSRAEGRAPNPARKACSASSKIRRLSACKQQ
# MAPK1 (human) = MAPK1 (human) (UniProt P28482)
# MAP3K7 TAB1 (human) = MAP3K7 TAB1 (human) (UniProt O43318+Q15750)
# ERBB4 (human) = ERBB4 (human) (UniProt Q15303)
# MAPK14 (human) = MAPK14 (human) (UniProt Q16539)
# EPHA4 (human) = EPHA4 (human) (UniProt P54764)
# VRK1 (human) = VRK1 (human) (UniProt Q99986)
# PAK3 (human) = PAK3 (human) (UniProt O75914)
# CDK5 CDK5R1 p25 (human) = CDK5 CDK5R1 p25 (human) (UniProt Q00535+Q15078)
# AKT2 (human) = AKT2 (human) (UniProt P31751)
# DAPK2 (human) = DAPK2 (human) (UniProt Q9UIK4)
# KDR (human) = KDR (human) (UniProt P35968)
# FES (human) = FES (human) (UniProt P07332)
smiles,measurement,setting,value
CCN(CC)CCNC(=O)c1c(C)[nH]c(/C=C2\C(=O)Nc3ccc(F)cc32)c1C,residual activity,CLK3 (human),105%
same,residual activity,ERBB2 (human),105%
same,residual activity,TSSK1B (human),20.7%
same,residual activity,PHKG2 (human),20.6%
same,residual activity,FGR (human),16.4%
same,residual activity,CSNK1D (human),31.8%
same,residual activity,TAOK1 (human),71.5%
same,residual activity,RET (human),3.43%
same,residual activity,TEC (human),94.8%
same,residual activity,RPS6KB1 (human),42.3%
same,residual activity,CDK4 CCND3 (human),93%
same,residual activity,MERTK (human),39.8%
same,residual activity,NEK11 (human),106%
same,residual activity,ACVR1B (human),101%
same,residual activity,RAF1 (human),110%
same,residual activity,CDK6 CCND1 (human),50.5%
same,residual activity,WEE1 (human),91.8%
same,residual activity,PDPK1 (human),81.6%
same,residual activity,PBK (human),106%
same,residual activity,PKN2 (human),89.1%
same,residual activity,RPS6KA5 KD2 (human),60.1%
same,residual activity,MAP3K2 (human),51.9%
same,residual activity,DDR2 (human),154%
same,residual activity,TAOK2 (human),90.3%
same,residual activity,TNK2 (human),64.1%
same,residual activity,KIT (human),8.74%
same,residual activity,PRKACG (human),109%
same,residual activity,CDK1 CCNA2 (human),98.4%
same,residual activity,AURKC (human),72.8%
same,residual activity,STK11 (human),97.2%
same,residual activity,MAPK1 (human),98.5%
same,residual activity,MAP3K7 TAB1 (human),18.6%
same,residual activity,ERBB4 (human),94.8%
same,residual activity,MAPK14 (human),105%
same,residual activity,EPHA4 (human),84.5%
same,residual activity,VRK1 (human),97.3%
Cc1ccc(Nc2nccc(N(C)c3ccc4c(C)n(C)nc4c3)n2)cc1S(N)(=O)=O,residual activity,CLK3 (human),107%
same,residual activity,ERBB2 (human),103%
same,residual activity,TSSK1B (human),99%
same,residual activity,PHKG2 (human),96.7%
same,residual activity,FGR (human),35.8%
same,residual activity,CSNK1D (human),95.4%
same,residual activity,TAOK1 (human),28.9%
same,residual activity,RET (human),25.7%
same,residual activity,TEC (human),101%
same,residual activity,RPS6KB1 (human),96%
same,residual activity,CDK4 CCND3 (human),96%
same,residual activity,PAK3 (human),90.6%
same,residual activity,MERTK (human),57.2%
same,residual activity,NEK11 (human),94.8%
same,residual activity,ACVR1B (human),100%
same,residual activity,RAF1 (human),9.43%
same,residual activity,CDK5 CDK5R1 p25 (human),95.1%
same,residual activity,CDK6 CCND1 (human),96.5%
same,residual activity,WEE1 (human),95.3%
same,residual activity,PDPK1 (human),93%
same,residual activity,PBK (human),101%
same,residual activity,PKN2 (human),106%
same,residual activity,RPS6KA5 KD2 (human),101%
same,residual activity,MAP3K2 (human),110%
same,residual activity,DDR2 (human),36.2%
same,residual activity,TAOK2 (human),26.8%
same,residual activity,AKT2 (human),107%
same,residual activity,TNK2 (human),90.2%
same,residual activity,KIT (human),10.9%
same,residual activity,PRKACG (human),111%
same,residual activity,CDK1 CCNA2 (human),96.2%
same,residual activity,AURKC (human),70.9%
same,residual activity,STK11 (human),92.1%
same,residual activity,MAPK1 (human),103%
same,residual activity,MAP3K7 TAB1 (human),90.6%
same,residual activity,ERBB4 (human),86.9%
same,residual activity,MAPK14 (human),91.2%
same,residual activity,EPHA4 (human),94.5%
same,residual activity,VRK1 (human),100%
same,residual activity,DAPK2 (human),93%
CC(=O)c1ccc(N2CCOCC2)cc1O,residual activity,CLK3 (human),101%
same,residual activity,ERBB2 (human),98.2%
same,residual activity,TSSK1B (human),107%
same,residual activity,PHKG2 (human),98.1%
same,residual activity,FGR (human),95.6%
same,residual activity,CSNK1D (human),100%
same,residual activity,TAOK1 (human),99.4%
same,residual activity,RET (human),103%
same,residual activity,TEC (human),139%
same,residual activity,RPS6KB1 (human),95.2%
same,residual activity,CDK4 CCND3 (human),96.4%
same,residual activity,PAK3 (human),93.9%
same,residual activity,MERTK (human),101%
same,residual activity,NEK11 (human),98.6%
same,residual activity,KDR (human),97.7%
same,residual activity,ACVR1B (human),100%
same,residual activity,RAF1 (human),96.2%
same,residual activity,CDK5 CDK5R1 p25 (human),99.7%
same,residual activity,CDK6 CCND1 (human),99.3%
same,residual activity,WEE1 (human),97.5%
same,residual activity,FES (human),100%
same,residual activity,PDPK1 (human),111%
same,residual activity,PBK (human),113%
same,residual activity,PKN2 (human),94.8%
same,residual activity,RPS6KA5 KD2 (human),105%
same,residual activity,MAP3K2 (human),109%
same,residual activity,DDR2 (human),104%
same,residual activity,TAOK2 (human),107%
same,residual activity,AKT2 (human),96.2%
same,residual activity,TNK2 (human),101%
same,residual activity,KIT (human),102%
same,residual activity,CDK1 CCNA2 (human),99.8%
same,residual activity,AURKC (human),104%
same,residual activity,STK11 (human),103%
same,residual activity,MAPK1 (human),97.6%
same,residual activity,MAP3K7 TAB1 (human),98.6%
same,residual activity,ERBB4 (human),107%
same,residual activity,MAPK14 (human),97.1%
same,residual activity,EPHA4 (human),101%
same,residual activity,VRK1 (human),98.1%
same,residual activity,DAPK2 (human),106%
